Format in all cases: in vivo
The test system of assay [1] is potato leafhopper (Empoasca fabae (Harris)). Kind of assay: Test B: control of potato leafhopper on Soleil bean plant (spray, contact and/or systemic). The settings on record: 144 h, sprayed at 250 ppm, assessed after 6 days. As for the experimental part: (§1) Test compounds were formulated using a solution containing 10% acetone, 90% water and 300 ppm X-77® Spreader Lo-Foam Formula non-ionic surfactant containing alkylarylpolyoxyethylene, free fatty acids, glycols and isopropanol (Loveland Industries, Inc. Greeley, Colo., USA). The formulated compounds were applied in 1 mL of liquid through a SUJ2 atomizer nozzle with 1/8 JJ custom body (Spraying Systems Co. Wheaton, Ill., USA) positioned 1.27 cm (0.5 inches) above the top of each test unit. Test compounds were sprayed at the rates indicated, and each test was replicated three times.
For evaluating control of potato leafhopper (Empoasca fabae (Harris)) through contact and/or systemic means, the test unit consisted of a small open container with a 5-6-day-old Soleil bean plant (primary leaves emerged) inside. White sand was added to the top of the soil, and one of the primary leaves was excised prior to application of the test compound.
Test compounds were formulated and sprayed at 250 and/or 50 ppm. After spraying of the formulated test compound, the test units were allowed to dry for 1 hour before they were post-infested with 5 potato leafhoppers (18-to-21-day-old adults). […] Each test unit was then visually assessed for insect mortality.

Assay [2] relates to green peach aphid (Myzus persicae (Sulzer)). Kind of assay: Test C: control of green peach aphid on radish plant (spray, contact and/or systemic). Particulars: 144 h. The protocol:
as §1
For evaluating control of green peach aphid (Myzus persicae (Sulzer)) through contact and/or systemic means, the test unit consisted of a small open container with a 12-15-day-old radish plant inside. This was pre-infested by placing on a leaf of the test plant 30-40 aphids on a piece of leaf excised from a culture plant (cut-leaf method). The aphids moved onto the test plant as the leaf piece desiccated. After pre-infestation, the soil of the test unit was covered with a layer of sand.
Test compounds were formulated and sprayed at 250 and/or 50 ppm. After spraying of the formulated test compound, each test unit was allowed to dry for 1 hour and then a black, screened cap was placed on top. The test units were held for 6 days in a growth chamber at 19-21° C. and 50-70% relative humidity. Each test unit was then visually assessed for insect mortality.

Assay [3] concerns cotton melon aphid (Aphis gossypii (Glover)). Kind of assay: Test D: control of cotton melon aphid on cotton plant (spray, contact and/or systemic). The settings on record: 144 h, assessed after 6 days; for mortality at 50 ppm: sprayed at 50 ppm; for mortality at 250 ppm: sprayed at 250 ppm. The protocol: as §1
For evaluating control of cotton melon aphid (Aphis gossypii (Glover)) through contact and/or systemic means, the test unit consisted of a small open container with a 6-7-day-old cotton plant inside. This was pre-infested with 30-40 insects on a piece of leaf according to the cut-leaf method, and the soil of the test unit was covered with a layer of sand.
Test compounds were formulated and sprayed at 250 and/or 50 ppm. After spraying, the test units were maintained in a growth chamber for 6 days at 19° C. and 70% relative humidity. Each test unit was then visually assessed for insect mortality.

For assay [4], the system named is sweetpotato whitefly (Bemisia tabaci (Gennadius)). Kind of assay: Test F: control of sweetpotato whitefly on cotton plant (spray, contact and/or systemic). Particulars: 312 h. The protocol: as §1
For evaluating control of the sweetpotato whitefly (Bemisia tabaci (Gennadius)) through contact and/or systemic means, the test unit consisted of a small open container with a 12-14-day-old cotton plant inside. Prior to the spray application, both cotyledons were removed from the plant, leaving one true leaf for the assay. Adult whiteflies were allowed to lay eggs on the plant and then were removed from the test unit. Cotton plants infested with at least 15 eggs were submitted to the test for spraying.
Test compounds were formulated and sprayed at 250 and/or 50 ppm. After spraying, the test units were allowed to dry for 1 hour. The cylinders were then removed, and the units were taken to a growth chamber and held for 13 days at 28° C. and 50-70% relative humidity. Each test unit was then visually assessed for insect mortality.

Where [5] appears, read: sprayed at 50 ppm, assessed after 6 days, read-out: mortality.
The mark [6] stands for this setting: sprayed at 250 ppm, assessed after 6 days, read-out: mortality.
Where [7] appears, read: sprayed at 250 ppm, assessed after 13 days, read-out: mortality.

Where two headings read alike, the source gives them in different places. Some results are limits rather than exact numbers.

On to `O=C(NCC(F)(F)F)c1cccc2nn(-c3ccc[n+]([O-])c3)cc12` [Compound 466], for which the mortality at 250 ppm in assay [1] was ≥ 80%.

Consider `O=C(NC1CCCCC1)c1cccc2nn(-c3cccnc3)cc12` [Compound 16, N-cyclohexyl-2-(3-pyridinyl)-2H-indazole-4-carboxamide], for which the mortality at 50 ppm in assay [2] (setting [5]) and in assay [3] was ≥ 80% each time. Besides, the mortality at 250 ppm in assay [2] (setting [6]) and in assay [3] was ≥ 80% each time.

Consider `O=C(NCC(F)(F)F)c1cccc2nn(-c3cccnc3)cc12` [Compound 19, 2-(3-pyridinyl)-N-(2,2,2-trifluoroethyl)-2H-indazole-4-carboxamide], for which the mortality at 50 ppm in assay [2] (setting [5]) and in assay [3] was ≥ 80% in each case. Also, the mortality at 250 ppm in assay [2] (setting [6]) and in assay [3] was ≥ 80% each time.

As to `O=C(NCCCl)c1ccc2nn(-c3cccnc3)cc2c1` [Compound 463], in assay [2], the mortality at 50 ppm is ≥ 80% and the mortality at 250 ppm is ≥ 80%. In assay [4], the mortality at 250 ppm is ≥ 50%.

As to `O=C(NC1CC1)c1cccc2nn(-c3cccnc3)cc12` [Compound 14, N-cyclopropyl-2-(3-pyridinyl)-2H-indazole-4-carboxamide], the mortality at 50 ppm in assay [2] (setting [5]) and in assay [3] was ≥ 80% each time. Further, the mortality at 250 ppm in assay [2] (setting [6]) and in assay [3] was ≥ 80% in each case.

Consider `CC(F)(F)CNC(=O)c1ccc2nn(-c3cccnc3)cc2c1` [Compound 54, N-(2,2-difluoropropyl)-2-(3-pyridinyl)-2H-indazole-5-carboxamide], for which the mortality at 50 ppm in assay [2] (setting [5]) and in assay [3] was ≥ 80% each time. For the same compound, the mortality at 250 ppm in assay [2] (setting [6]) and in assay [3] was ≥ 80% throughout.

Take `CSCCNC(=O)c1cccc2nc(-c3cccnc3)sc12` [Compound 84, N-[2-(methylthio)ethyl]-2-(3-pyridinyl)-7-benzothiazolecarboxamide]: the mortality at 50 ppm in assay [2] (setting [5]) is ≥ 80%. The mortality at 250 ppm in assay [2] (setting [6]) is ≥ 80%.

In the case of `CC(C)NC(=O)c1cccc2nn(-c3cccnc3)cc12` [Compound 8, N-(1-methylethyl)-2-(3-pyridinyl)-2H-indazole-4-carboxamide], the mortality at 50 ppm in assay [2] (setting [5]) and in assay [3] was ≥ 80% each time. For the same compound, the results for the mortality at 250 ppm in assay [2] (setting [6]), in assay [4] (setting [7]) and in assay [3] were ≥ 80%, ≥ 50% and ≥ 80%, respectively.

Consider `O=C(NCC1CCCO1)c1ccc2nn(-c3cccnc3)cc2c1` (stereo not shown) [Compound 41, 2-(3-pyridinyl)-N-[(tetrahydro-2-furanyl)methyl]-2H-indazole-5-carboxamide], for which the mortality at 50 ppm in assay [2] (setting [5]) and in assay [3] was ≥ 80% throughout. Further, the mortality at 250 ppm in assay [2] (setting [6]) and in assay [3] was ≥ 80% each time.

`COC(=O)NNC(=O)c1ccc2nn(-c3cccnc3)cc2c1` [Compound 42, methyl 2-[[2-(3-pyridinyl)-2H-indazol-5-yl]carbonyl]hydrazinecarboxylate]: the mortality at 50 ppm in assay [2] (setting [5]) and in assay [3] was ≥ 80% in each case. The mortality at 250 ppm in assay [2] (setting [6]) was ≥ 80%; in assay [4] (setting [7]) it was ≥ 50%.

For `O=C(NCC1CC1(F)F)c1ccc2nn(-c3cccnc3)cc2c1` (stereo not shown) [Compound 51, N-[(2,2-difluorocyclopropyl)methyl]-2-(3-pyridinyl)-2H-indazole-5-carboxamide], the mortality at 50 ppm in assay [2] (setting [5]) and in assay [3] was ≥ 80% each time. Besides, the mortality at 250 ppm in assay [2] (setting [6]) and in assay [3] was ≥ 80% each time.

As to `O=C(NCC1CCCO1)c1ccc2nn(-c3ccc[n+]([O-])c3)cc2c1` (stereo not shown) [Compound 462], the mortality at 50 ppm in assay [2] (setting [5]) is ≥ 80%. The mortality at 250 ppm in assay [2] (setting [6]) and in assay [3] was ≥ 80% in each case.

For the compound `O=C(NCc1ncccn1)c1ccc2nn(-c3cccnc3)cc2c1` [Compound 55, 2-(3-pyridinyl)-N-(2-pyrimidinylmethyl)-2H-indazole-5-carboxamide], the mortality at 50 ppm in assay [2] (setting [5]) and in assay [3] was ≥ 80% each time. Besides, the mortality at 250 ppm in assay [2] (setting [6]) and in assay [3] was ≥ 80% in each case.

For the compound `Cc1cnc(CNC(=O)c2ccc3nn(-c4cccnc4)cc3c2)cn1` [Compound 76, N-[(5-methyl-2-pyrazinyl)methyl]-2-(3-pyridinyl)-2H-indazole-5-carboxamide], the mortality at 50 ppm in assay [2] (setting [5]) and in assay [3] was ≥ 80% throughout. Moreover, the mortality at 250 ppm in assay [2] (setting [6]) was ≥ 80%.

As a reminder, the mortality is the share of the test organisms that died.

The values are drawn from patent US11578085B2, “Heterocycle-substituted bicyclic azole pesticides” (FMC CORPORATION, priority 2013, dated 2023).
